Converted amounts (≈) assume the structure as drawn. Read-outs that look alike come from different tables or passages of the source.
Tests used:
[1] = system: S. pneumoniae topoisomerase mutants; assay: MIC against defined topoisomerase mutants; format: cell-based; settings: Streptococcus pneumoniae
[2] = system: Pathogens Associated With Bacterial Conjunctivitis; assay: Integrated besifloxacin MIC data from preclinical (nonclinical) studies (Table 8); format: cell-based
[3] = Clostridium perfringens, N 21, agar dilution

N[C@@H]1CCCCN(c2c(F)cc3c(=O)c(C(=O)O)cn(C4CC4)c3c2Cl)C1 [Besifloxacin, (R)-(+)-(3-amino-2,3,4,5,6,7-hexahydro-1H-azepin-1-yl)-8-chloro-1-cyclopropyl-6-fluoro-1,4,-dihydro-4-oxo-3-quinolinecarboxylic acid]
MIC ([1]; S. pneumoniae Wild type): 0.12 µg/mL (≈ 0.305 µM) | MIC ([1]; S. pneumoniae gyrA S81F): 0.5 µg/mL (≈ 1.27 µM) | MIC ([1]; S. pneumoniae parC S79Y): 0.25 µg/mL (≈ 0.635 µM) | MIC ([1]; S. pneumoniae parC S79Y + gyrA S81F): 1 µg/mL | MIC50 ([2]; Acinetobacter baumannii, Acinetobacter baumanii Quinolone-R, N 5, read-out: MIC50): > 8 µg/mL | MIC50 ([2]; Acinetobacter baumannii, Acinetobacter baumanii Quinolone-S, N 43, read-out: MIC50): 0.5 µg/mL (≈ 1.27 µM) | MIC90 ([2]; Acinetobacter baumannii, Acinetobacter baumanii Quinolone-S, N 43, read-out: MIC90): 2 µg/mL (≈ 5.08 µM) | MIC50 ([2]; Acinetobacter baumannii-calcoaceticus Quinolone-R, N 10, read-out: MIC50): > 8 µg/mL | MIC90 ([2]; Acinetobacter baumannii-calcoaceticus Quinolone-R, N 10, read-out: MIC90): > 8 µg/mL | MIC Range ([2]; Acinetobacter baumannii-calcoaceticus Quinolone-S, N 23): 0.12 to 4 µg/mL | MIC50 ([2]; Acinetobacter baumannii-calcoaceticus Quinolone-S, N 23, read-out: MIC50): 0.5 µg/mL (≈ 1.27 µM) | MIC Range ([2]; Acinetobacter lwoffii, N 13): 0.12 to 2 µg/mL | MIC50 ([2]; Acinetobacter lwoffii, N 13, read-out: MIC50): 0.5 µg/mL (≈ 1.27 µM) | MIC90 ([2]; Acinetobacter lwoffii, N 13, read-out: MIC90): 0.5 µg/mL (≈ 1.27 µM) | MIC50 ([2]; Bacteroides fragilis, N 20, agar dilution, read-out: MIC50): 0.5 µg/mL (≈ 1.27 µM) | MIC90 ([2]; Bacteroides fragilis, N 20, agar dilution, read-out: MIC90): 1 µg/mL (≈ 2.54 µM) | MIC Range ([2]; Citrobacter koser Quinolone-R, N 1): >8 µg/mL | MIC Range ([2]; Citrobacter koser Quinolone-S, N 99): 0.03 to 4 µg/mL | MIC90 ([2]; Citrobacter koser Quinolone-S, N 99, read-out: MIC90): 0.25 µg/mL (≈ 0.635 µM) | MIC50 [2, 3]: 0.25 µg/mL (≈ 0.635 µM) | MIC90 [2, 3]: 0.25 µg/mL (≈ 0.635 µM) | MIC Range [2, 3]: 0.12 to 0.25 µg/mL | MIC Range ([2]; Corynebacterium species, N 30, agar dilution): ≦0.06-2 μg/mL | MIC50 ([2]; Corynebacterium species, N 30, agar dilution, read-out: MIC50): 0.25 µg/mL (≈ 0.635 µM) | MIC90 ([2]; Corynebacterium species, N 30, agar dilution, read-out: MIC90): 2 µg/mL (≈ 5.08 µM) | MIC50 ([2]; Cutibacterium acnes, Propionibacterium acnes, N 21, agar dilution, read-out: MIC50): 0.25 µg/mL (≈ 0.635 µM) | MIC90 ([2]; Cutibacterium acnes, Propionibacterium acnes, N 21, agar dilution, read-out: MIC90): 0.25 µg/mL (≈ 0.635 µM) | MIC Range ([2]; Enterobacter aerogene Quinolone-S, N 37): 0.12 to 4 µg/mL | MIC50 ([2]; Enterobacter aerogene Quinolone-S, N 37, read-out: MIC50): 0.25 µg/mL (≈ 0.635 µM) | MIC90 ([2]; Enterobacter aerogene Quinolone-S, N 37, read-out: MIC90): 2 µg/mL (≈ 5.08 µM) | MIC Range ([2]; Enterobacter cloacae Quinolone-R, N 1): >8 µg/mL | MIC Range ([2]; Enterobacter cloacae Quinolone-S, N 58): 0.12 to 2 µg/mL | MIC50 ([2]; Enterobacter cloacae, Enterobacter cloacae Quinolone-S, N 58, read-out: MIC50): 0.25 µg/mL (≈ 0.635 µM) | MIC90 ([2]; Enterobacter cloacae, Enterobacter cloacae Quinolone-S, N 58, read-out: MIC90): 0.5 µg/mL (≈ 1.27 µM) | MIC Range ([2]; Fusobacterium species, N 21, agar dilution): 0.12 to 8 µg/mL | MIC50 ([2]; Fusobacterium species, N 21, agar dilution, read-out: MIC50): 0.25 µg/mL (≈ 0.635 µM) | MIC90 ([2]; H. influenzae, value used for PK/PD ratios of Study 424): ^bMIC90: H. influenzae ≦0.06 μg/mL. | MIC Range ([2]; Haemophilus influenzae (all phenotypes), N 243): ≦0.004-0.25 μg/mL | MIC Range ([2]; Haemophilus influenzae β-lactamase+, N 118): 0.008 to 0.12 µg/mL | MIC Range ([2]; Haemophilus influenzae β-lactamase−, N 100): ≦0.004-0.12 μg/mL | MIC90 ([2]; Haemophilus influenzae, H. influenzae, value used for PK/PD ratios of Study 424, read-out: MIC90): ≤ 0.06 µg/mL | MIC50 ([2]; Haemophilus influenzae, Haemophilus influenzae (all phenotypes), N 243, read-out: MIC50): 0.03 µg/mL (≈ 0.0762 µM) | MIC50 ([2]; Haemophilus influenzae, Haemophilus influenzae β-lactamase+, N 118, read-out: MIC50): 0.03 µg/mL (≈ 0.0762 µM) | MIC50 ([2]; Haemophilus influenzae, Haemophilus influenzae β-lactamase− Ampicillin-R, N 25, read-out: MIC50): 0.12 µg/mL (≈ 0.305 µM) | MIC90 ([2]; Haemophilus influenzae, Haemophilus influenzae β-lactamase− Ampicillin-R, N 25, read-out: MIC90): 0.25 µg/mL (≈ 0.635 µM) | MIC50 ([2]; Haemophilus influenzae, Haemophilus influenzae β-lactamase−, N 100, read-out: MIC50): 0.03 µg/mL (≈ 0.0762 µM) | MIC Range ([2]; Key Organisms Quinolone-S, N 894): ≦0.004-1 μg/mL | MIC50 ([2]; Key Organisms Quinolone-S, N 894, read-out: MIC50): 0.06 µg/mL (≈ 0.152 µM) | MIC90 ([2]; Key Organisms Quinolone-S, N 894, read-out: MIC90): 0.12 µg/mL (≈ 0.305 µM) | MIC50 ([2]; Key Organisms combined, N 1205): 0.06 µg/mL | MIC90 ([2]; Key Organisms combined, N 1205, read-out: MIC90): 1 µg/mL | MIC Range ([2]; Klebsiella oxytoca Quinolone-R, N 5): 1 to 8 µg/mL | MIC50 ([2]; Klebsiella oxytoca Quinolone-R, N 5, read-out: MIC50): 8 µg/mL (≈ 20.3 µM) | MIC Range ([2]; Klebsiella oxytoca Quinolone-S, N 45): 0.06 to 1 µg/mL | MIC90 ([2]; Klebsiella oxytoca, Klebsiella oxytoca Quinolone-S, N 45, read-out: MIC90): 0.5 µg/mL (≈ 1.27 µM) | MIC50 ([2]; Legionella pneumophila, N 50): 0.03 µg/mL (≈ 0.0762 µM) | MIC90 ([2]; Legionella pneumophila, N 50): 0.03 µg/mL (≈ 0.0762 µM) | MIC Range ([2]; Legionella pneumophila, N 50): 0.015 to 0.06 µg/mL | MIC50 ([2]; Moraxella catarrhalis, N 201, read-out: MIC50): 0.06 µg/mL (≈ 0.152 µM) | MIC90 ([2]; Moraxella catarrhalis, N 201, read-out: MIC90): 0.12 µg/mL (≈ 0.305 µM) | MIC Range ([2]; Moraxella species, N 30, agar dilution): ≦0.06-0.13 μg/mL | MIC50 ([2]; Moraxella species, N 30, agar dilution, read-out: MIC50): ≤ 0.06 µg/mL | MIC90 ([2]; Moraxella species, N 30, agar dilution, read-out: MIC90): 0.13 µg/mL (≈ 0.33 µM) | MIC Range ([2]; Morganella morganii Quinolone-S, N 39): 0.03 to 2 µg/mL | MIC50 ([2]; Morganella morganii, Morganella morganii Quinolone-R, N 12, read-out: MIC50): 4 µg/mL (≈ 10.2 µM) | MIC90 ([2]; Morganella morganii, Morganella morganii Quinolone-R, N 12, read-out: MIC90): 8 µg/mL (≈ 20.3 µM) | MIC90 ([2]; Morganella morganii, Morganella morganii Quinolone-S, N 39, read-out: MIC90): 1 µg/mL (≈ 2.54 µM) | MIC Range ([2]; Neisseria gonorrhoeae, N 103): 0.004 to 2 µg/mL | MIC50 ([2]; Neisseria gonorrhoeae, N 103, read-out: MIC50): 0.015 µg/mL (≈ 0.0381 µM) | MIC90 ([2]; Neisseria gonorrhoeae, N 103, read-out: MIC90): 0.015 µg/mL (≈ 0.0381 µM)
